Results taken from US20230371510A1, “APPLICATION OF PYRROLE-2-CARB[…] CONTROLLING PLANT ROOT-KNOT NEMATODES” (Yunnan University, priority 2022, published 2023).
≈ marks a conversion by molar mass, not a printed value. Like-named read-outs stand apart in the source and are kept apart here.

Columns and labels:
Format in all cases: in vivo
Meloidogyne hapla = test: Nematicidal (insecticidal) mortality assay in well plate; conditions: 48 h
Procedure: (§1) 0.5 mg-1.5 mg of pyrrole-2-carboxaldehyde was dissolved in methanol and diluted with sterile distilled water as the test liquid. The dilution concentrations of each liquid medicine were 12.5 μg/ml, 25 μg/ml, 50 μg/ml, 100 μg/ml, 200 μg/ml and 400 μg/ml respectively, and the mass concentration of methanol in each liquid medicine was 5%. Water containing 5% methanol was used as a blank control.
(§2) In addition, root-knot nematodes such as Meloidogyne hapla, Meloidogyne javanica and Meloidogyne arenaria were also prepared for testing.
(§3) 200 μl of the above test liquid was added to a 20-well plate with 100-150 live nematodes and placed at 25° C. Subsequently, the nematodes were examined under an optical microscope at 12 h, 24 h and 48 h, respectively, to calculate the mortality. Method for identification of mortality: 1-5 drops of 5% NaCl solution were added to the wells of the treatment plate and observed after 2 minutes; Dead nematodes were stiff and unresponsive to stimulation with a needle, while surviving nematodes were curled or wriggled.
(§4) The whole experiment was repeated three times with the test liquid without samples as the control, and the average value was taken three times to calculate the corrected mortality.
(§5) Mortality %=(number of dead nematodes/(number of dead nematodes+number of surviving nematodes))×100%
(§6) Corrected mortality %=sample mortality−control mortality

Meloidogyne arenaria = test: as above; conditions: 48 h
Procedure: as §1, §2, §3, §4, §5, §6

Meloidogyne javanica = test: as above; conditions: 48 h
Procedure: as §1, §2, §3, §4, §5, §6

Meloidogyne incognita = test: Nematicidal (insecticidal) mortality assay on second instar larvae in well plate; conditions: for mortality at 12.5 µg/mL: 12.5 μg/ml; for mortality at 12.5 µg/mL / mortality at 25 µg/mL / mortality at 50 µg/mL / mortality at 100 µg/mL / mortality at 200 µg/mL / mortality at 400 µg/mL: 25° C, read-out: Corrected mortality (%); for mortality at 25 µg/mL: 25 μg/ml; for mortality at 50 µg/mL: 50 μg/ml; for mortality at 100 µg/mL: 100 μg/ml; for mortality at 200 µg/mL: 200 μg/ml; for mortality at 400 µg/mL: 400 μg/ml; for LC50: calculated with SPSS 26.0
Procedure: as §1
The infected tomato roots with Meloidogyne incognita were washed with water, and the oocysts of Meloidogyne incognita were picked by a dissecting needle and placed in 0.4 M KCl solution. The oocysts were washed and disinfected in a 5 ml centrifuge tube with 4 ml sterile water (three times), 1 ml sterile penicillin-streptomycin double antibody solution and 3 ml 0.1% NaClO solution, and the supernatant was removed in each step by short centrifugation (8000 rpm for 30 seconds). The washed eggs were incubated in 0.4 M ZnCl2 solution for 48 h, and the second instar larvae were collected in a 1.5 ml centrifuge tube with a pipette and enriched by short centrifugation (5000 rpm for 30 seconds) for subsequent use.
200 μl of the above test liquid was added to a 20-well plate with 100-150 live nematodes and placed at 25° C. […] Method for identification of mortality: 1-5 drops of 5% NaCl solution were added to the wells of the treatment plate and observed after 2 minutes; Dead nematodes were stiff and unresponsive to stimulation with a needle, while surviving nematodes were curled or wriggled.
as §4, §5, §6

`O=Cc1ccc[nH]1` [pyrrole-2-carboxaldehyde] gave an LC50 (Meloidogyne hapla) of 31.6 µg/mL (≈ 333 µM), an LC50 (Meloidogyne arenaria) of 31 µg/mL (≈ 326 µM) and an LC50 (Meloidogyne javanica) of 33.6 µg/mL (≈ 353 µM). The mortality at 12.5 µg/mL (Meloidogyne incognita; 12 h) was 6.99 ± 1.99%, the mortality at 12.5 µg/mL (Meloidogyne incognita; 24 h) was 16.6 ± 3.58% and the mortality at 12.5 µg/mL (Meloidogyne incognita; 36 h) was 24.9 ± 4.7%. It also gave a mortality at 12.5 µg/mL (Meloidogyne incognita; 48 h) of 30.3 ± 4.57%, a mortality at 12.5 µg/mL (Meloidogyne incognita; 72 h) of 36.1 ± 5.08% and a mortality at 25 µg/mL (Meloidogyne incognita; 12 h) of 15.8 ± 0.29%. The mortality at 25 µg/mL (Meloidogyne incognita; 24 h) was 26.5 ± 0.53%, the mortality at 25 µg/mL (Meloidogyne incognita; 36 h) was 36.3 ± 0.95% and the mortality at 25 µg/mL (Meloidogyne incognita; 48 h) was 42.1 ± 1.51%. It also gave a mortality at 25 µg/mL (Meloidogyne incognita; 72 h) of 48.5 ± 0.78%, a mortality at 50 µg/mL (Meloidogyne incognita; 12 h) of 22.4 ± 0.43% and a mortality at 50 µg/mL (Meloidogyne incognita; 24 h) of 36.63 ± 0.19%. The mortality at 50 µg/mL (Meloidogyne incognita; 36 h) was 53.4 ± 3.16%, the mortality at 50 µg/mL (Meloidogyne incognita; 48 h) was 56.6 ± 0.63% and the mortality at 50 µg/mL (Meloidogyne incognita; 72 h) was 63.2 ± 0.99%. The mortality at 100 µg/mL (Meloidogyne incognita; 12 h) was 24.3 ± 2.78%, the mortality at 100 µg/mL (Meloidogyne incognita; 24 h) was 38.7 ± 2% and the mortality at 100 µg/mL (Meloidogyne incognita; 36 h) was 62 ± 0.85%. It also gave a mortality at 100 µg/mL (Meloidogyne incognita; 48 h) of 83.2 ± 1.29%, a mortality at 100 µg/mL (Meloidogyne incognita; 72 h) of 88.27 ± 0.56% and a mortality at 200 µg/mL (Meloidogyne incognita; 12 h) of 34.2 ± 1.74%. It also gave a mortality at 200 µg/mL (Meloidogyne incognita; 24 h) of 64.3 ± 0.9%, a mortality at 200 µg/mL (Meloidogyne incognita; 36 h) of 79.29 ± 0.7% and a mortality at 200 µg/mL (Meloidogyne incognita; 48 h) of 93.3 ± 2.24%. The mortality at 200 µg/mL (Meloidogyne incognita; 72 h) was 94.5 ± 1.89%, the mortality at 400 µg/mL (Meloidogyne incognita; 12 h) was 47.5 ± 4.35% and the mortality at 400 µg/mL (Meloidogyne incognita; 24 h) was 77.42 ± 0.58%. The mortality at 400 µg/mL (Meloidogyne incognita; 36 h) was 93.2 ± 0.82%, the mortality at 400 µg/mL (Meloidogyne incognita; 48 h) was 98.01 ± 0.2% and the mortality at 400 µg/mL (Meloidogyne incognita; 72 h) was 99.26 ± 0.34%. It also gave an LC50 (Meloidogyne incognita; 24 h) of 84.7 µg/mL (≈ 891 µM) and an LC50 (Meloidogyne incognita; 48 h) of 30.7 µg/mL (≈ 323 µM).
